From PubChem BioAssay AID248 (DTP/NCI, 2004)
Inconclusive results and toxic doses are left out. No stated cut-off is given here; in the data, active means T/C of 150% or more; inactive means T/C below 125%.

Tested on: L1210 leukemia ip in BDF1 mice, survival T/C
Experiment: NCI In Vivo Anticancer Drug Screen. Data for tumor model L1210 Leukemia (intraperitoneal) in B6D2F1 (BDF1) mice
Conditions: endpoint: mean survival time, higher = longer survival
Method in brief: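 Transplanted-tumor mice were given test agent; controls received vehicle only. Survival readings from the two groups were divided (treated over control).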

[1] = dose: 75.0 mg/kg/injection, schedule: Q01DX009 (ip), vehicle: Klucel (hydroxypropylcellulose) (HPC)
[2] = dose: 200.0 mg/kg/injection, schedule: Q01DX001 (ip), vehicle: carboxymethylcellulose (CMC)
[3] = dose: 400.0 mg/kg/injection, schedule: Q01DX001 (ip), vehicle: carboxymethylcellulose (CMC)
[4] = dose: 50.0 mg/kg/injection, schedule: Q01DX009 (ip), vehicle: Klucel (hydroxypropylcellulose) (HPC)
[5] = dose: 50.0 mg/kg/injection, schedule: Q01DX009 (ip), vehicle: saline with Tween-80
[6] = dose: 100.0 mg/kg/injection, schedule: Q01DX009 (ip), vehicle: saline with Tween-80
[7] = dose: 100.0 mg/kg/injection, schedule: Q04DX003 (ip), vehicle: saline with Tween-80
[8] = dose: 200.0 mg/kg/injection, schedule: Q01DX009 (ip), vehicle: saline with Tween-80
[9] = dose: 200.0 mg/kg/injection, schedule: Q04DX003 (ip), vehicle: saline with Tween-80
[10] = dose: 400.0 mg/kg/injection, schedule: Q04DX003 (ip), vehicle: saline with Tween-80
[11] = dose: 100.0 mg/kg/injection, schedule: Q04DX003 (ip), vehicle: Klucel (hydroxypropylcellulose) (HPC)
[12] = dose: 200.0 mg/kg/injection, schedule: Q04DX003 (ip), vehicle: Klucel (hydroxypropylcellulose) (HPC)
[13] = dose: 400.0 mg/kg/injection, schedule: Q04DX003 (ip), vehicle: Klucel (hydroxypropylcellulose) (HPC)
[14] = dose: 50.0 mg/kg/injection, schedule: Q01DX001 (ip), vehicle: saline
[15] = dose: 100.0 mg/kg/injection, schedule: Q01DX001 (ip), vehicle: saline
[16] = dose: 100.0 mg/kg/injection, schedule: Q01DX009 (ip), vehicle: Klucel (hydroxypropylcellulose) (HPC)
[17] = dose: 200.0 mg/kg/injection, schedule: Q01DX001 (ip), vehicle: saline
[18] = dose: 200.0 mg/kg/injection, schedule: Q01DX009 (ip), vehicle: Klucel (hydroxypropylcellulose) (HPC)
[19] = dose: 400.0 mg/kg/injection, schedule: Q01DX009 (ip), vehicle: Klucel (hydroxypropylcellulose) (HPC)
[20] = dose: 400.0 mg/kg/injection, schedule: Q01DX001 (ip), vehicle: saline
[21] = dose: 400.0 mg/kg/injection, schedule: Q01DX009 (ip), vehicle: saline with Tween-80

Measured: T/C

CCC1NC(=O)C(NC(=O)c2ncccc2O)C(C)OC(=O)C(c2ccccc2)NC(=O)C2CC(=O)CCN2C(=O)C(Cc2ccccc2)N(C)C(=O)C2CCCN2C1=O (centres undefined) (tested in a mixture with another compound)
inactive: dose: 18.75 mg/kg/injection, schedule: Q01DX009 (ip), vehicle: Klucel (hydroxypropylcellulose) (HPC) 91 % of control | dose: 37.5 mg/kg/injection, schedule: Q01DX009 (ip), vehicle: Klucel (hydroxypropylcellulose) (HPC) 107 % of control | [1] 98 % of control

Nc1ncc(C=Nc2ccc(C(=O)O)cc2)c(N)n1
inactive: [2] 94 % of control | [3] 102 % of control

O=C(O)C1C(C(=O)O)C2C=CC1C21CCCC1 (centres undefined)
inactive: dose: 75.0 mg/kg/injection, schedule: Q01DX001 (ip), vehicle: saline 97 % of control | dose: 150.0 mg/kg/injection, schedule: Q01DX001 (ip), vehicle: saline 97 % of control | dose: 300.0 mg/kg/injection, schedule: Q01DX001 (ip), vehicle: saline 95 % of control

Cc1cc(C)c(C(Cl)(Cl)Cl)c(C)c1Cl
inactive: dose: 22.0 mg/kg/injection, schedule: Q01DX009 (ip), vehicle: saline with Tween-80 119 % of control | dose: 33.0 mg/kg/injection, schedule: Q01DX009 (ip), vehicle: Klucel (hydroxypropylcellulose) (HPC) 113 % of control | dose: 33.0 mg/kg/injection, schedule: Q01DX009 (ip), vehicle: saline with Tween-80 112 % of control | [4] 100 % of control | [5] 118 % of control | [1] 107 % of control | dose: 75.0 mg/kg/injection, schedule: Q01DX009 (ip), vehicle: saline with Tween-80 113 % of control | dose: 100.0 mg/kg/injection, schedule: Q01DX001 (ip), vehicle: carboxymethylcellulose (CMC) 121 % of control | [6] 121 % of control | [7] 120 % of control | [2] 118 % of control | [8] 103 % of control | [9] 108 % of control | [3] 121 % of control

Cc1ccc(S(=O)(=O)N/N=C2\CC3(Cl)CCC2C3)cc1 (centres undefined)
inactive: [6] 88 % of control | [7] 92 % of control | [8] 91 % of control | [9] 97 % of control | [10] 101 % of control

O=C1OC(c2ccccc2)CC12CCCCC2 (centres undefined)
inactive: [11] 102 % of control | [12] 100 % of control | [13] 100 % of control

O=S(=O)(/N=C1\C=CC(Br)=C\C1=N/S(=O)(=O)c1ccccc1)c1ccccc1
inactive: dose: 100.0 mg/kg/injection, schedule: Q01DX001 (ip), vehicle: Klucel (hydroxypropylcellulose) (HPC) 89 % of control | dose: 200.0 mg/kg/injection, schedule: Q01DX001 (ip), vehicle: Klucel (hydroxypropylcellulose) (HPC) 106 % of control | dose: 400.0 mg/kg/injection, schedule: Q01DX001 (ip), vehicle: Klucel (hydroxypropylcellulose) (HPC) 101 % of control

O=c1[nH]c2ncccc2c(=O)n1O
inactive: [14] 96 % of control | [15] 100 % of control | [16] 96 % of control | [17] 96 % of control | [18] 98 % of control | [19] 94 % of control

Nc1ccc(Nc2ccncc2)cc1
inactive: [4] 98 % of control | [16] 97 % of control | [11] 93 % of control | [18] 98 % of control | [12] 95 % of control

O=NN(CCO)C(=O)Nc1ccc(NC(=O)N(CCO)N=O)cc1
inactive: dose: 9.0 mg/kg/injection, schedule: Q01DX001 (ip), vehicle: carboxymethylcellulose (CMC) 106 % of control | dose: 18.0 mg/kg/injection, schedule: Q01DX001 (ip), vehicle: carboxymethylcellulose (CMC) 108 % of control | dose: 26.0 mg/kg/injection, schedule: Q01DX001 (ip), vehicle: carboxymethylcellulose (CMC) 114 % of control | dose: 40.0 mg/kg/injection, schedule: Q01DX001 (ip), vehicle: carboxymethylcellulose (CMC) 111 % of control | dose: 60.0 mg/kg/injection, schedule: Q01DX001 (ip), vehicle: carboxymethylcellulose (CMC) 111 % of control

O=[N+]([O-])c1ccc(C2=NCCO2)cc1
inactive: dose: 100.0 mg/kg/injection, schedule: Q04DX002 (ip), vehicle: saline 104 % of control | dose: 200.0 mg/kg/injection, schedule: Q04DX002 (ip), vehicle: saline 114 % of control | dose: 400.0 mg/kg/injection, schedule: Q04DX002 (ip), vehicle: saline 104 % of control

CC(C)(C)OC[CH2][Hg][I]
inactive: dose: 12.5 mg/kg/injection, schedule: Q04DX002 (ip), vehicle: Klucel (hydroxypropylcellulose) (HPC) 96 % of control | dose: 25.0 mg/kg/injection, schedule: Q04DX002 (ip), vehicle: Klucel (hydroxypropylcellulose) (HPC) 104 % of control

C(#[C][Sn]([C]#Cc1ccccc1)([C]#Cc1ccccc1)[C]#Cc1ccccc1)c1ccccc1
inactive: [5] 92 % of control | [6] 103 % of control | [8] 95 % of control

S=c1sscc1-c1ccccc1
inactive: dose: 50.0 mg/kg/injection, schedule: Q04DX003 (ip), vehicle: Klucel (hydroxypropylcellulose) (HPC) 95 % of control | [16] 108 % of control | [11] 111 % of control | [18] 112 % of control | [12] 95 % of control | [19] 110 % of control | [13] 98 % of control

C=CCOCC(O)C[As](=O)(O)c1ccc(OC)cc1 (centres undefined)
inactive: dose: 25.0 mg/kg/injection, schedule: Q04DX003 (ip), vehicle: saline with Tween-80 87 % of control

CCN(CC)c1ccc(/C=N\NC(=O)CCCC(=O)N/N=C/c2ccc(N(CC)CC)cc2)cc1
inactive: [14] 102 % of control | [15] 100 % of control | [17] 96 % of control | [20] 100 % of control

CCOS(=O)O
inactive: dose: 100.0 mg/kg/injection, schedule: Q04DX003 (ip), vehicle: saline 96 % of control | dose: 200.0 mg/kg/injection, schedule: Q04DX003 (ip), vehicle: saline 96 % of control | dose: 400.0 mg/kg/injection, schedule: Q04DX003 (ip), vehicle: saline 98 % of control

COC1CC(O)C(O)C(C)O1 (centres undefined)
inactive: [15] 93 % of control | [6] 100 % of control | [7] 91 % of control | [17] 96 % of control | [8] 91 % of control | [9] 108 % of control | [20] 98 % of control | [21] 89 % of control | [10] 100 % of control

NC(=S)C(=S)NCCO
inactive: [6] 103 % of control | [7] 100 % of control | [8] 94 % of control | [9] 93 % of control | [21] 100 % of control | [10] 93 % of control

CCN1CC2c3cc(OC)c(OC)cc3CC(c3ccccc3)C2C1 (centres undefined)
inactive: dose: 12.5 mg/kg/injection, schedule: Q01DX009 (ip), vehicle: saline with Tween-80 98 % of control | dose: 25.0 mg/kg/injection, schedule: Q01DX009 (ip), vehicle: saline with Tween-80 95 % of control
